# Results reported in patent publication US20030013643A1, “Prevention and treatment of streptococcal and staphylococcal infection” (priority 2000, published 2003).
# How the values were obtained:
# GAS = GAS translocation through abraded human skin equivalent; assay type: cell-based, Streptococcus pyogenes; conditions: pre-treated at 2 mg/ml for 1 hour; 4 hour infection period
# Protocol: To examine GAS translocation in a model system similar to normal human skin, we utilized pseudo-organ cultures of human skin equivalent. This material is made by constructing a “dermis” that consists of human fibroblasts cultured in a collagen matrix; human foreskin keratinocytes are seeded on top of the dermal equivalent and cultured under conditions that promote differentiation into a stratified squamous epithelium with a stratum comeum. The histology of the human skin equivalent is very similar to that of normal human skin except for the absence of non-keratinocyte elements such as blood vessels and hematopoietic cells, nerves, and hair follicles. Since intact human skin is highly resistant to GAS infection, we simulated minor trauma to the superficial epidermis by abrading the surface of the skin equivalent with a cytology brush to introduce breaks in the stratum corneum. GAS were inoculated onto the surface of abraded skin equivalent that had either been pre-treated with nothing, HA, or AL at 2 mg/ml for 1 hour and translocation through the tissue was monitored by culture of GAS from the basal surface of the skin equivalent at intervals. As depicted in FIG. 10, HA inhibited translocation GAS by 91% (solid bars). In comparison the AL control prevented only 14% of bacteria from translocating through the skin equivalent during the 4 hour infection period. […]
# [1] = test system: Group B Streptococcus (GBS, strain 515); assay: Bacterial binding to human keratinocyte monolayers, GBS; assay type: cell-based; conditions: 1 mg/ml pre-incubation; multiplicity of infection 10; 1 hour
# Protocol: (§1) Keratinocyte monolayers were prepared as descibed above in Methods section and pre-incubated with 1 mg/ml alginate (AL, solid bars) or 1 mg/ml hyaluronic acid (HA, hatched bars) prior to surface inoculation (as described above in Methods) with either Group A Streptococcus (GAS, strain 950771), Group B Streptococcus (GBS, strain 515), Streptococcus pneumoniae (S. pneumo, type 6), or Staphylococcus aureus (S. aureus, type 8) at a multiplicity of infection of 10 bacteria per keratinocyte for 1 hour.
# [2] = test system: wild-type GAS, strain 950771; assay: GAS translocation through polarized human keratinocyte monolayers; assay type: cell-based, Streptococcus pyogenes; conditions: pre-treated 30 minutes with 2 mg/ml, compared to untreated monolayers
# Protocol: Human keratinocytes were cultured on 3.0 μm filters to allow polarization and establishment of functional intercellular tight junctions. Cells were infected as described previously with wild-type GAS, strain 950771. To assess the ability of exogenously added HA to inhibit the translocation of GAS through the keratinocyte monolayer, cells were pre-treated for 30 minutes with either 2 mg/ml of hyaluronic acid (HA) or another acidic polysaccharide, alginate (AL), at the same concentration. Aliquots of media from the lower chamber of infected keratinocyte monolayers were cultured on blood agar plates at 1 and 2 hours after inoculation with bacteria to assess the number of translocating bacteria. […] In contrast only 20% and 25% of the wild-type bacteria were blocked by AL at 1 and 2 hours, respectively.
# GAS strains were 950771, an M-type 3 strain originally isolated from a child with necrotizing fasciitis, and 188, an isogenic acapsular mutant derived from 950771 (Ashbaugh, C. D., et al., (1998) J. Clin. Invest. 102, 550-560). Bacteria were cultured in Todd Hewitt broth (Difco, Sparks, Md.) to early exponential phase. For preparation of polarized keratinocyte monolayers, human squamous cell carcinoma cell line, SCC13, derived from cheek epidermis (Cline, P. R. & Rice, R. H. (1983) Cancer Res. 43, 3203-3207) was cultured to confluence in serum-free keratinocyte medium (Gibco BRL, Rockville, Md.) supplemented with 50 μg/ml bovine pituitary extract, 0.1 ng/ml epidermal growth factor and 0.3 mM calcium chloride (c-SFM). Certain experiments were performed also using cell monolayers prepared from OKP7 primary human keratinocytes (Crowe et al. (1991) Differentiation 48, 199-208). Keratinocytes were seeded at 5×10^5 cells per well onto polycarbonate Transwell membrane supports (12-well plates, 3.0 μm pore size; Costar, Corning, N.Y.) and cultured for 6-10 days at 37° C. with 5% CO2 in c-SFM, with daily medium changes. Once confluent, the integrity of the monolayer was assessed routinely by measuring permeability to sodium fluorescein (Tchao, R. (1988) Alternative Methods in Toxicology (eds. Goldberg, A. M.) 271-283 (Ann Liebert, N.Y.) and, in some experiments, by measuring transepithelial electrical resistance (McNamara, B. P., et al. (2001) J Clin Invest 107, 621-9).
# Keratinocyte monolayers on Transwells were inoculated with GAS at a multiplicity of infection of 10 per keratinocyte. Monolayers were incubated at 37° C. with 5% CO2. The keratinocyte medium in the upper chamber was replaced two hours after adding GAS, and the Transwell inserts containing the keratinocytes were moved to new wells containing fresh medium every 2 hours to prevent overgrowth of translocated bacteria. Translocation was assessed by quantitative cultures of medium from the lower chamber at 2 hour intervals.
# As a model of the movement of GAS from the pharyngeal mucosa or skin surface into underlying tissue, GAS translocation was studied in vitro through keratinocyte monolayers. Two hours after inoculation onto the surface of a confluent keratinocyte monolayer, wild-type GAS was detected in the culture medium below the membrane support, indicating migration of the organisms through the monolayer. At each of several intervals after inoculation, approximately 20 to 100 times as many GAS were recovered below monolayers inoculated with wild-type GAS compared to those inoculated with the acapsular mutant strain.(Figure 12a). […] Compared to wild-type GAS strain 950771, the efficiency of translocation was similar for wild-type GAS strains 87-282, a highly encapsulated M-type 18 strain, and for DLS003, a poorly encapsulated M-type 3 strain. Translocation of wild-type GAS was reduced by 78% at 1 hour in experiments in which the keratinocyte monolayers were pretreated with monoclonal antibody IM7.8.1 to block interaction of the GAS capsule with CD44 . […]
# [3] = test system: Staphylococcus aureus (S. aureus, type 8); assay: Bacterial binding to human keratinocyte monolayers, S. aureus; assay type: cell-based; conditions: 1 mg/ml pre-incubation; multiplicity of infection 10; 1 hour
# Protocol: as §1
# GAS 950771 or GAS 282 = assay: GAS binding to and displacement from human keratinocyte monolayers; assay type: cell-based, Streptococcus pyogenes; conditions: 1 mg/ml
substance,measurement,setting,value
hyaluronic acid,inhibition of translocation of GAS through skin equivalent,GAS,91%
same,inhibition of binding,[1],more than 80%
same,blocking of translocating GAS,[2]; 1 hour after inoculation,100%
same,blocking of translocating GAS,[2]; 2 hours after inoculation,100%
same,inhibition of binding,[3],more than 80%
same,inhibition of GAS binding to human cells,"GAS 950771 or GAS 282; GAS 950771 or GAS 282, not strain specific",block GAS binding to human cells
same,displacement of bound bacteria,GAS 950771 or GAS 282; after 45 minutes,displaced bound GAS
